Assay results: US7888368B2, “Treatment of drug-resistant tumors” (Sigma-Tau Industrie Farmaceutiche Riunite S.p.A., priority 2005, dated 2011)
Positions count from the first letter of the chain named.

Key:
[1] = molecular target: T1, human DNA topoisomerase I wild type (YCpGAL1 hTOP1) (Homo sapiens, UniProt P11387); experiment: In vivo spot test, yeast transformed with human DNA topoisomerase I wild type; conditions: Saccharomyces cerevisiae EKY2, 2% galactose, drug 45 μM, 48-72 h at 30° C.
T1 sequence (P11387 1-765): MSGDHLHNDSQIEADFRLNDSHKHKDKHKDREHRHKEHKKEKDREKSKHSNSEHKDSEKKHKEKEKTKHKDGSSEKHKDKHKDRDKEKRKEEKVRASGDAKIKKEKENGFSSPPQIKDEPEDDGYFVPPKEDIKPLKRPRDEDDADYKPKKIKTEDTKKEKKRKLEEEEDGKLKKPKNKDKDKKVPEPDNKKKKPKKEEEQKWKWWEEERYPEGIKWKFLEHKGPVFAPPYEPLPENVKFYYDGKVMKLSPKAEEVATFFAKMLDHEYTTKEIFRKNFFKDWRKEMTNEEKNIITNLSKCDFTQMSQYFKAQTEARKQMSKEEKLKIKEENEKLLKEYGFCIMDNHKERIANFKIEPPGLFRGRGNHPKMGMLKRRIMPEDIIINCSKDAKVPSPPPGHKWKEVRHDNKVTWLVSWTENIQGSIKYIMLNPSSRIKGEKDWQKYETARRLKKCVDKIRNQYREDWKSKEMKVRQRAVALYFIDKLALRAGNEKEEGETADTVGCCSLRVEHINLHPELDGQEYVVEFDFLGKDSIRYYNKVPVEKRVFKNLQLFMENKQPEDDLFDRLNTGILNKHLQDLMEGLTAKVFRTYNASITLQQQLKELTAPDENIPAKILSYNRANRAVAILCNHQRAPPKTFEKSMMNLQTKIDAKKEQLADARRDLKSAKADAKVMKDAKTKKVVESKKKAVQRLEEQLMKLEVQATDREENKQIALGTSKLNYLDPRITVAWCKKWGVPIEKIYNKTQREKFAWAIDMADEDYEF
Protocol: Before to transform the yeast cells with DNA (lithium acetate method), yeast was grown on solid medium. It was streaked on plates of 90 mm containing sterile solid medium (YPDA) (10 g yeast, 20 g peptone, 20 g dextrose, 0.7 g adenine, 20 g glucose, 20 g agar for liter). Colonies were grown after 48 h at 30° C. One day before the transformation, a single yeast colony of the strain to be transformed was inoculated in 5 ml of steril liquid YPDA (the medium above mentioned without agar). The colony was grown to saturation overnight under stirring at 30° C. The day after, 5 ml of saturated culture was diluted in 100 ml of YPDA liquid medium and grown at 30° C. to reach an optical density of 1.0 at 600 nm. Cells were centrifuged for 5 min at 4000×g at room temperature and the pellet was resuspended in 25 ml of a solution (T/E) containing 10 mM Tris-EDTA pH7.5, 1 mM EDTA and 100 mM lithium acetate. The yeast suspension was centrifuged for 5 min at 4000×g at room temperature. The pellet was resuspended in a fresh solution above described (about 500 μl) to obtain 2×10^9 cells/ml. To have the transformation, 200 μg of DNA carrier were mixed with 1 μg transforming DNA and 200 μl yeast cells in an eppendorf. Subsequently, 1.2 ml of a solution TE/lithium acetate containing 40% PEG were added and the yeast suspension was kept under stirring for 30 min at 30° C. A heat shock was performed by keeping the yeast suspension at 42° C. for 15 min. Subsequently it was centrifuged 5 sec at room temperature. Yeast was resuspended in TE buffer and spread up onto CM (complete minimal) dropout medium on plates. CM was previously prepared with 1.3 g of dropout powder containing different aminoacids without uracil, 1.7 g yeast nitrogen base without aminoacids and ammonium sulfate, 5 g ammonium sulfate, 20 g glucose and 20 of agar for liter). The plates were incubated at 30° C. until transformants appear.
To perform the in vivo spot test, the transformants were inoculated in 5 ml of steril liquid CM medium and grown overnight under stirring at 30° C. The day after a dilution of the yeast colonies was made to reach an optical density at 600 nm of 0.3. Starting from this first dilution, other serial dilutions (1:10, 1:100, 1:1000) were performed in plates of 96 well. 5 μl of each dilution were put on plates of 90 mm containing solid CM medium. For the control samples, 2% glucose or 2% galactose were added; for the camptothecin-derivatives treated samples, 2% galactose and the drugs at a concentration 45 μM were added. The yeast colonies were incubated at 30° C. for 48-72 h and analyzed macroscopically.

[2] = system: DU145RC1 camptothecin-resistant prostate carcinoma; experiment: Antitumor activity on DU145RC1 resistant tumor xenograft; format: in vivo, human; conditions: DU145 RC1 s.c. in nude athymic mice, q4d × 5
Text: (§1) Using a q4d dosing schedule repeated for 3-5 doses, ST1968 was compared to irinotecan or other known chemotherapeutic agents against different human tumor models (Table 2), including A2780/ADR multidrug-resistant ovarian carcinoma which overexpresses PgP glycoprotein, A2780/DDP platinum-resistant ovarian carcinoma and DU145RC1 camptothecin-resistant prostate carcinoma which was previously selected by continuous exposure of the parental sensitive DU145 to 9-nitro-camptothecin (Urasaki Y et al., 2001, Cancer Res 61, 1964-9). On this selected tumor cell line, a Topoisomerase I mutation which changes the arginine 364 codon to histidine (R364H) was found. The 364H point mutation was located in the highly conserved core, a region of Topoisomerase I within the Topoisomerase I amino acid residues 361-364 critical for camptothecin resistance. Moreover, this mutation site is close to the catalytic tyrosine. The resistance of the Topoisomerase I/R364H is probably attributable to the loss of a critical H-bond between R364 and camptothecin E-ring lactone moiety.
(§2) Exponentially growing tumor cells were injected s.c. into nude athymic mice. The number of tumor cells was previously chosen by a growth curve. Mice were housed inside cages of makrolon (33.2×15×13 cm) with stainless steel cover-feed and sterilized and dust-free bedding cobs. Animals were housed under a light-dark cycle, keeping temperature and humidity constant. Parameters of the animal rooms were assessed as follows: 22±2° C. temperature, 55±10% relative humidity, about 15-20 filtered air changes/hour and 12 hour circadian cycle of artificial light (7 a.m., 7 p.m.). At request, the environmental conditions were monitored and the data are retained in Animal Housing Archives. Drinking water was supplied ad libitum. Each mouse was offered daily a complete pellet diet (GLP 4RF21, Mucedola) throughout the study. The analytical certificates of animal food and water are retained at Sigma-Tau premises. All animals were weighed before starting the experiment and were subdivided into the different dosage groups. Each cage was identified by a paper tag indicating: cage number, group, date of tumor injection, starting date of treatment, name of the test item, dose and route of administration, date of sacrifice.
(§3) Tumor growth was followed by biweekly measurements of tumor diameters with a Vernier caliper. Tumor volume (TV, mm^3) was calculated as: [length (mm)×width (mm)^2]/2, where the width and the length are the shortest and the longest diameters of each tumor, respectively.
(§4) The efficacy of the drug treatment was assessed as: a) Tumor volume inhibition (TVI %) in treated versus control mice, calculated as: 100−[(mean tumor volume of treated animals/mean tumor volume of control animals)×100]; b) LCK (log10 cell kill) calculated by the formula LCK=(T−C)/3.32×DT, where T and C are the mean times (days) required for treated (T) and control (C) tumor, respectively, to reach 1000 mm^3, and DT is the doubling time of control tumors; CR meaning no evidence of tumor lasting for at least 10 days.

[3] = system: A2780/ADR multidrug-resistant ovarian carcinoma; experiment: Antitumor activity on A2780/ADR resistant tumor xenograft; format: in vivo, human; conditions: A2780/ADR s.c. in nude athymic mice, q4d × 4
Text: as §1, §2, §3, §4

[4] = molecular target: T2, human DNA topoisomerase I mutant YCpGAL1htop1K720E (Homo sapiens, UniProt P11387, K720E); experiment: In vivo spot test, yeast transformed with human DNA topoisomerase I mutant K720E; format: cell-based; conditions: Saccharomyces cerevisiae EKY2, 2% galactose, drug 45 μM, 48-72 h at 30° C.
T2 sequence (P11387 1-765 K720E): T1 sequence (P11387 1-765) with K720E

[5] = system: A2780/DDP platinum-resistant ovarian carcinoma; experiment: Antitumor activity on A2780/DDP resistant tumor xenograft; format: in vivo, human; conditions: A2780/DDP s.c. in nude athymic mice, q4d × 3
Text: as §1, §2, §3, §4

[6] = system: DU145 sensitive prostate carcinoma; experiment: Antitumor activity on DU145 tumor xenograft; format: in vivo, human; conditions: DU145 s.c. in nude athymic mice, 35 iv mg/kg, q4d × 4
Text: Using a q4d dosing schedule repeated for 3-5 doses, ST1968 was compared to irinotecan or other known chemotherapeutic agents against different human tumor models (Table 2), including A2780/ADR multidrug-resistant ovarian carcinoma which overexpresses PgP glycoprotein, A2780/DDP platinum-resistant ovarian carcinoma and DU145RC1 camptothecin-resistant prostate carcinoma which was previously selected by continuous exposure of the parental sensitive DU145 to 9-nitro-camptothecin (Urasaki Y et al., 2001, Cancer Res 61, 1964-9). On this selected tumor cell line, a Topoisomerase I mutation which changes the arginine 364 codon to histidine (R364H) was found. […]
Exponentially growing tumor cells were injected s.c. into nude athymic mice. […] Parameters of the animal rooms were assessed as follows: 22±2° C. temperature, 55±10% relative humidity, about 15-20 filtered air changes/hour and 12 hour circadian cycle of artificial light (7 a.m., 7 p.m.). At request, the environmental conditions were monitored and the data are retained in Animal Housing Archives. […]
Tumor growth was followed by biweekly measurements of tumor diameters with a Vernier caliper. Tumor volume (TV, mm^3) was calculated as: [length (mm)×width (mm)^2]/2, where the width and the length are the shortest and the longest diameters of each tumor, respectively. […]

CC[C@@]1(O)C(=O)OCc2c1cc1n(c2=O)Cc2c-1nc1ccccc1c2/C=N/OC(C)(C)C [ST1481, 7-t-butoxyiminomethylcamptothecin]
growth of the yeasts transformed with the DNA topoisomerase I wild type [1]: inhibit the growth

CCC1(O)C(=O)OCc2c1cc1n(c2=O)Cc2c-1nc1ccccc1c2C=NOCCN1CCOCC1 (stereo not drawn) [ST1600, 7-[2-(4-morpholinyl)ethoxy]iminomethylcamptothecin]
growth of the yeasts transformed with the DNA topoisomerase I wild type [1]: inhibit the growth

CC[C@@]1(O)C(=O)OCc2c1cc1n(c2=O)Cc2c-1nc1ccccc1c2/C=N\OCCN [ST1968, 7-(2-amino)ethoxyiminomethylcamptothecin]
growth of the yeasts transformed with the DNA topoisomerase I wild type [1]: inhibit the growth
CR ([2]; 30 mg/kg): 0/8
LCK ([2]; 30 mg/kg): 1.3
TVI % ([2]; 30 mg/kg): 65%
CR ([3]; 15 mg/kg): 6/8
LCK ([3]; 15 mg/kg): 2.2
TVI % ([3]; 15 mg/kg): 99%
LCK ([3]; 30 mg/kg): 1.9
TVI % ([3]; 30 mg/kg): 100%
growth of the transformed YCpGAL1htop1K720E mutant [4]: able to inhibit the growth
CR ([5]; 15 mg/kg): 8/8
LCK ([5]; 15 mg/kg): 6.3
TVI % ([5]; 15 mg/kg): 100%
CR ([5]; 30 mg/kg): 7/7
LCK ([5]; 30 mg/kg): >>6.3
TVI % ([5]; 30 mg/kg): 100%
LCK [6]: 0.65
TVI % [6]: 66%

CCC1(O)C(=O)OCc2c1cc1n(c2=O)Cc2c-1nc1ccccc1c2C=NOCCN(C)C (stereo not drawn) [ST1969, 7-(2-dimethylamino)ethoxyiminomethylcamptothecin]
growth of the yeasts transformed with the DNA topoisomerase I wild type [1]: inhibit the growth
growth of the transformed YCpGAL1htop1K720E mutant [4]: able to inhibit the growth

CCC1(O)C(=O)OCc2c1cc1n(c2=O)Cc2c-1nc1ccccc1c2C=NOCc1ccc(N)cc1 (stereo not drawn) [ST1976, 7-(4-amino)benzyloxyiminomethylcamptothecin]
growth of the yeasts transformed with the DNA topoisomerase I wild type [1]: inhibit the growth

CC[C@@]1(O)C(=O)OCc2c1cc1n(c2=O)Cc2cc3ccccc3nc2-1 [camptothecin]
growth of the yeasts transformed with the DNA topoisomerase I wild type [1]: inhibit the growth

N.N.O=C([O-])C1(C(=O)[O-])CCC1.[Pt+2] [carboplatin]
CR ([3]; 33.3 mg/kg): 0/7
LCK ([3]; 33.3 mg/kg): 0.6
TVI % ([3]; 33.3 mg/kg): 62%
CR ([5]; 25 mg/kg): 0/8
LCK ([5]; 25 mg/kg): 0.5
TVI % ([5]; 25 mg/kg): 26%

CCc1c2c(nc3ccc(OC(=O)N4CCC(N5CCCCC5)CC4)cc13)-c1cc3c(c(=O)n1C2)COC(=O)[C@]3(O)CC [irinotecan]
CR ([2]; 60 mg/kg): 0/8
LCK ([2]; 60 mg/kg): 0.8
TVI % ([2]; 60 mg/kg): 45%

CC(=O)O[C@H]1C(=O)[C@@]2(C)[C@H]([C@H](OC(=O)c3ccccc3)[C@]3(O)C[C@H](OC(=O)[C@H](O)[C@@H](NC(=O)c4ccccc4)c4ccccc4)C(C)=C1C3(C)C)[C@]1(OC(C)=O)CO[C@@H]1C[C@@H]2O [paclitaxel]
CR ([3]; 16 mg/kg): 0/8
LCK ([3]; 16 mg/kg): 0.1
TVI % ([3]; 16 mg/kg): 16%
CR ([5]; 15 mg/kg): 6/6
LCK ([5]; 15 mg/kg): 1.4
TVI % ([5]; 15 mg/kg): 94%

CC[C@@]1(O)C(=O)OCc2c1cc1n(c2=O)Cc2cc3c(CN(C)C)c(O)ccc3nc2-1 [topotecan]
CR ([3]; 10 mg/kg): 1/6
LCK ([3]; 10 mg/kg): 1.1
TVI % ([3]; 10 mg/kg): 85%
CR ([5]; 10 mg/kg): 1/8
LCK ([5]; 10 mg/kg): 1.2
TVI % ([5]; 10 mg/kg): 93%
